Test results from paper PMC11800159, “Insertion of a Divergent GAF-like Domain Defines a Novel Family of YcgR Homologues That Bind c-di-GMP in Leptospirales” (ACS Omega, 2025).

Target: T1, YcgRLIC_11920
T1 construct: gene LIC_11920; full-length protein, N-terminal 6x histidine tag
Assay: ITC ([…] °C; […] at […] °C), […] c-di-GMP:protein stoichiometry
Format: binding

In the case of `Nc1nc2c(ncn2[C@@H]2O[C@@H]3COP(=O)(O)O[C@H]4[C@@H](O)[C@H](n5cnc6c(=O)[nH]c(N)nc65)O[C@@H]4COP(=O)(O)O[C@H]3[C@H]2O)c(=O)[nH]1` [c-di-GMP], the Kd is reported as 60 nM.
